Source: PubChem BioAssay (NCI)
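Grown in 96-well plates, cells were treated for 48 hours with each compound at five concentrations. Insufficient inhibition: endpoint recorded as highest concentration tested. Definition used: TGI = concentration required for complete inhibition of growth.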

How the values were obtained:
Assay in all cases: NCI tumour cell line growth inhibition, 48 h
SK-MEL-28 melanoma = test system: SK-MEL-28 melanoma
SNB-19 CNS = test system: SNB-19 CNS
SF-268 CNS = test system: SF-268 CNS
DU-145 prostate = test system: DU-145 prostate
SNB-75 CNS = test system: SNB-75 CNS
BT-549 breast = test system: BT-549 breast
IGROV1 ovarian = test system: IGROV1 ovarian
ACHN renal = test system: ACHN renal
OVCAR-3 ovarian = test system: OVCAR-3 ovarian
MCF7 breast = test system: MCF7 breast
CAKI-1 renal = test system: CAKI-1 renal
NCI-H23 lung = test system: NCI-H23 lung
A498 renal = test system: A498 renal
HOP-92 NSCLC = test system: HOP-92 NSCLC
SF-295 CNS = test system: SF-295 CNS
LOX IMVI melanoma = test system: LOX IMVI melanoma
SK-OV-3 ovarian = test system: SK-OV-3 ovarian
HT29 colon = test system: HT29 colon
NCI-H226 lung = test system: NCI-H226 lung
PC-3 prostate = test system: PC-3 prostate
COLO 205 colon = test system: COLO 205 colon
TK-10 renal = test system: TK-10 renal
OVCAR-5 ovarian = test system: OVCAR-5 ovarian
M14 melanoma = test system: M14 melanoma
NCI/ADR-RES ovarian = test system: NCI/ADR-RES ovarian
UACC-257 melanoma = test system: UACC-257 melanoma
SN12C renal = test system: SN12C renal
HOP-62 NSCLC = test system: HOP-62 NSCLC
CCRF-CEM leukemia = test system: CCRF-CEM leukemia
SR leukemia = test system: SR leukemia
NCI-H460 lung = test system: NCI-H460 lung
SK-MEL-2 melanoma = test system: SK-MEL-2 melanoma
MALME-3M melanoma = test system: MALME-3M melanoma
KM12 colon = test system: KM12 colon
MDA-N = test system: MDA-N
EKVX NSCLC = test system: EKVX NSCLC
RXF 393 renal = test system: RXF 393 renal
HCC-2998 colon = test system: HCC-2998 colon
HCT-116 colon = test system: HCT-116 colon
U251 CNS = test system: U251 CNS
SW-620 colon = test system: SW-620 colon
HL-60(TB) leukemia = test system: HL-60(TB) leukemia
K-562 leukemia = test system: K-562 leukemia
A549 NSCLC = test system: A549 NSCLC
MDA-MB-435 = test system: MDA-MB-435
RPMI-8226 leukemia = test system: RPMI-8226 leukemia
SK-MEL-5 melanoma = test system: SK-MEL-5 melanoma
UO-31 renal = test system: UO-31 renal
HCT-15 colon = test system: HCT-15 colon
786-0 renal = test system: 786-0 renal
UACC-62 melanoma = test system: UACC-62 melanoma
T-47D breast = test system: T-47D breast
OVCAR-8 ovarian = test system: OVCAR-8 ovarian
MOLT-4 leukemia = test system: MOLT-4 leukemia
NCI-H522 lung = test system: NCI-H522 lung
SF-539 CNS = test system: SF-539 CNS
MDA-MB-231 breast = test system: MDA-MB-231 breast
OVCAR-4 ovarian = test system: OVCAR-4 ovarian
HS 578T breast = test system: HS 578T breast
M19-MEL melanoma = test system: M19-MEL melanoma
KM20L2 colon = test system: KM20L2 colon
DMS 273 small cell lung = test system: DMS 273 small cell lung
HOP-18 NSCLC = test system: HOP-18 NSCLC
LXFL 529 NSCLC = test system: LXFL 529 NSCLC
DLD-1 colon = test system: DLD-1 colon

## NC(=S)NN=C1Cc2ccccc2C1
SK-MEL-28 melanoma
  TGI: > 100 µM
SNB-19 CNS
  TGI: > 100 µM
SF-268 CNS
  TGI: > 100 µM
DU-145 prostate
  TGI: > 100 µM
SNB-75 CNS
  TGI: > 100 µM
BT-549 breast
  TGI: > 100 µM
IGROV1 ovarian
  TGI: > 100 µM
ACHN renal
  TGI: > 100 µM
OVCAR-3 ovarian
  TGI: > 100 µM
MCF7 breast
  TGI: > 100 µM
CAKI-1 renal
  TGI: > 100 µM
NCI-H23 lung
  TGI: > 100 µM
A498 renal
  TGI: > 100 µM
HOP-92 NSCLC
  TGI: > 100 µM
SF-295 CNS
  TGI: > 100 µM
LOX IMVI melanoma
  TGI: > 100 µM
SK-OV-3 ovarian
  TGI: > 100 µM
HT29 colon
  TGI: > 100 µM
NCI-H226 lung
  TGI: > 100 µM
PC-3 prostate
  TGI: > 100 µM
COLO 205 colon
  TGI: > 100 µM
TK-10 renal
  TGI: > 100 µM
OVCAR-5 ovarian
  TGI: > 100 µM
M14 melanoma
  TGI: > 100 µM
NCI/ADR-RES ovarian
  TGI: > 100 µM
UACC-257 melanoma
  TGI: > 100 µM
SN12C renal
  TGI: > 100 µM
HOP-62 NSCLC
  TGI: > 100 µM
CCRF-CEM leukemia
  TGI: > 100 µM
SR leukemia
  TGI: > 100 µM
NCI-H460 lung
  TGI: > 100 µM
SK-MEL-2 melanoma
  TGI: > 100 µM
MALME-3M melanoma
  TGI: > 100 µM
KM12 colon
  TGI: > 100 µM
MDA-N
  TGI: > 100 µM
EKVX NSCLC
  TGI: > 100 µM
RXF 393 renal
  TGI: > 100 µM
HCC-2998 colon
  TGI: > 100 µM
HCT-116 colon
  TGI: > 100 µM
U251 CNS
  TGI: > 100 µM
SW-620 colon
  TGI: > 100 µM
HL-60(TB) leukemia
  TGI: > 100 µM
K-562 leukemia
  TGI: > 100 µM
A549 NSCLC
  TGI: > 100 µM
MDA-MB-435
  TGI: > 100 µM
RPMI-8226 leukemia
  TGI: > 100 µM
SK-MEL-5 melanoma
  TGI: > 100 µM
UO-31 renal
  TGI: > 100 µM
HCT-15 colon
  TGI: > 100 µM
786-0 renal
  TGI: > 100 µM
UACC-62 melanoma
  TGI: > 100 µM
T-47D breast
  TGI: > 100 µM
OVCAR-8 ovarian
  TGI: > 100 µM
MOLT-4 leukemia
  TGI: > 100 µM
NCI-H522 lung
  TGI: > 100 µM
SF-539 CNS
  TGI: > 100 µM
MDA-MB-231 breast
  TGI: > 100 µM
OVCAR-4 ovarian
  TGI: > 100 µM
HS 578T breast
  TGI: > 100 µM

## C[C@@]12[Se]c3ccccc3[C@]1(C)[Se]c1ccccc12
SF-268 CNS
  TGI: > 100 µM
ACHN renal
  TGI: > 100 µM
OVCAR-3 ovarian
  TGI: > 100 µM
CAKI-1 renal
  TGI: > 100 µM
NCI-H23 lung
  TGI: > 100 µM
HOP-92 NSCLC
  TGI: > 100 µM
M19-MEL melanoma
  TGI: > 100 µM
SF-295 CNS
  TGI: > 100 µM
LOX IMVI melanoma
  TGI: > 100 µM
KM20L2 colon
  TGI: > 100 µM
HT29 colon
  TGI: > 100 µM
NCI-H226 lung
  TGI: > 100 µM
COLO 205 colon
  TGI: > 100 µM
TK-10 renal
  TGI: > 100 µM
OVCAR-5 ovarian
  TGI: > 100 µM
M14 melanoma
  TGI: > 100 µM
SN12C renal
  TGI: > 100 µM
CCRF-CEM leukemia
  TGI: > 100 µM
SK-MEL-2 melanoma
  TGI: > 100 µM
DMS 273 small cell lung
  TGI: > 100 µM
MALME-3M melanoma
  TGI: > 100 µM
KM12 colon
  TGI: > 100 µM
HOP-18 NSCLC
  TGI: > 100 µM
EKVX NSCLC
  TGI: > 100 µM
HCC-2998 colon
  TGI: > 100 µM
HCT-116 colon
  TGI: > 100 µM
U251 CNS
  TGI: > 100 µM
SW-620 colon
  TGI: > 100 µM
LXFL 529 NSCLC
  TGI: > 100 µM
HL-60(TB) leukemia
  TGI: 8.4 µM
K-562 leukemia
  TGI: > 100 µM
RPMI-8226 leukemia
  TGI: > 100 µM
SK-MEL-5 melanoma
  TGI: > 100 µM
DLD-1 colon
  TGI: > 100 µM
786-0 renal
  TGI: > 100 µM
UACC-62 melanoma
  TGI: 7.18 µM
OVCAR-8 ovarian
  TGI: > 100 µM
NCI-H522 lung
  TGI: > 100 µM
OVCAR-4 ovarian
  TGI: > 100 µM
